Experimental data as given in patent publication US20230407243A1, “GENETIC PLATFORM TO INVESTIGATE THE FUNCTIONS OF BACTERIAL DRUG EFFLUX PUMPS” (priority 2022, published 2023).
Like-named read-outs stand apart in the source and are kept apart here.

Columns and labels:
Assay type in all cases: cell-based, Escherichia coli
[1] = test system: EKO-35 araC::mdtEF; assay: MIC susceptibility profiling, efflux platform; conditions: for Fold change of MICs: EKO-35 araC::mdtEF compared to EKO-35
How it was run: (§1)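 Broth MIC in cation-adjusted Mueller-Hinton (MHB II) following twofold compound titration in duplicate. Bacteria were prepared at OD600 ~1.0 in PBS and diluted 1/2000. Endpoint OD600 after 18 h at 37 °C was corrected using the pre-incubation reading.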

[2] = test system: EKO-35 araC::acrBD408A; assay: MIC susceptibility profiling, efflux platform; conditions: for Fold change of MICs: EKO-35 araC::acrBD408A compared to EKO-35
How it was run: as §1

[3] = test system: EKO-35 araC::acrEF; assay: MIC susceptibility profiling, efflux platform; conditions: for Fold change of MICs: EKO-35 araC::acrEF compared to EKO-35
How it was run: as §1

[4] = test system: EKO-35 araC::emrKY; assay: MIC susceptibility profiling, efflux platform; conditions: for Fold change of MICs: EKO-35 araC::emrKY compared to EKO-35
How it was run: as §1

[5] = test system: EKO-35 araC::acrD; assay: MIC susceptibility profiling, efflux platform; conditions: for Fold change of MICs: EKO-35 araC::acrD compared to EKO-35
How it was run: as §1

[6] = test system: EKO-35 araC::mexCD (MexCD from P. aeruginosa); assay: MIC susceptibility profiling, efflux platform; conditions: for Fold change of MICs: EKO-35 araC::mexCD compared to EKO-35
How it was run: as §1

[7] = test system: EKO-35 araC::mdtBC; assay: MIC susceptibility profiling, efflux platform; conditions: for Fold change of MICs: EKO-35 araC::mdtBC compared to EKO-35
How it was run: as §1

[8] = test system: EKO-35 araC::emrAB; assay: MIC susceptibility profiling, efflux platform; conditions: for Fold change of MICs: EKO-35 araC::emrAB compared to EKO-35
How it was run: as §1

[9] = test system: EKO-35 araC::macAB; assay: MIC susceptibility profiling, efflux platform; conditions: for Fold change of MICs: EKO-35 araC::macAB compared to EKO-35
How it was run: as §1

[10] = test system: EKO-35 araC::acrB; assay: MIC susceptibility profiling, efflux platform; conditions: for Fold change of MICs: EKO-35 araC::acrB compared to EKO-35
How it was run: as §1

[11] = test system: wild-type E. coli K-12 str. BW25113; assay: microbe, parasite or virus in culture; conditions: technical duplicate; for MIC: Escherichia coli, BW25113
How it was run: as §1

[12] = test system: E. coli ΔtolC; assay: microbe, parasite or virus in culture; conditions: for Minimum inhibitory concentration (MIC), ΔtolC: Table 10, without pore; for Minimum inhibitory concentration (MIC), ΔtolC / Minimum Inhibitory Concentration, ΔtolC: technical duplicate; for Minimum Inhibitory Concentration, ΔtolC: Table 13A, non-porinated
How it was run: as §1

[13] = test system: E. coli EKO-35; assay: microbe, parasite or virus in culture; conditions: for Fold change of MICs: EKO-35 compared to EKO-35 (reference); for Minimum inhibitory concentration (MIC), EKO-35 / Minimum Inhibitory Concentration, EKO-35 / MIC: technical duplicate; for MIC: Escherichia coli, EKO35
How it was run: as §1

[14] = test system: wild-type (WT) K-12-Pore; assay: microbe, parasite or virus in culture; conditions: technical duplicate; for MIC: Escherichia coli
How it was run: (§2)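 E. coli strains carrying a genomically integrated constitutive fhuA ΔC/Δ4L pore were grown 18 h in LB at 37 °C, then diluted 1/2000 in MHB II from OD600 ~1.0. Compounds were tested in duplicate, 2-fold serial titration, for 18 h at 37 °C with shaking. MIC came from OD600 with the pre-incubation background subtracted.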

[15] = test system: ΔtolC-Pore; assay: microbe, parasite or virus in culture; conditions: for Minimum inhibitory concentration (MIC), Pore ΔtolC: Table 10, with pore; for Minimum inhibitory concentration (MIC), Pore ΔtolC / Minimum inhibitory concentration, ΔtolC-Pore: technical duplicate; for Minimum inhibitory concentration, ΔtolC-Pore: Table 14A, porinated
How it was run: as §2

[16] = test system: EKO-35-Pore; assay: MIC susceptibility profiling, porinated strain; conditions: for Fold changes of MICs: EKO-35-Pore compared to EKO-35-Pore (reference); for Minimum inhibitory concentration (MIC), Pore EKO-35 / Minimum inhibitory concentration, EKO-35-Pore / MIC: technical duplicate; for MIC: Escherichia coli
How it was run: as §2

[17] = test system: EKO-35 araC::mdtBC Pore; assay: MIC susceptibility profiling, porinated efflux platform; conditions: for Fold changes of MICs: EKO-35 araC::mdtBC Pore compared to EKO-35-Pore
How it was run: as §2

[18] = test system: EKO-35 araC::acrB Pore; assay: as above; conditions: for Fold changes of MICs: EKO-35 araC::acr-B Pore compared to EKO-35-Pore; for Minimum inhibitory concentration, EKO-35 araC::acrB Pore: Table 14A, porinated, technical duplicate
How it was run: as §2

[19] = test system: EKO-35 araC::mdtEF Pore; assay: as above; conditions: for Fold changes of MICs: EKO-35 araC::mdtEF Pore compared to EKO-35-Pore
How it was run: as §2

[20] = Table 13A, non-porinated, technical duplicate
[21] = Table 13B, non-porinated, technical duplicate
[22] = EKO-35 araC::mdtBC Pore, technical duplicate
[23] = Table 14A, porinated, technical duplicate

Nc1ccccc1SCc1nc(-c2ccc(Cl)cc2)no1 [compound 16]
5 µg/mL: Minimum Inhibitory Concentration, EKO-35 araC::emrKY [4, 21] | Minimum Inhibitory Concentration, EKO-35 araC::mdtBC [7, 21] | Minimum inhibitory concentration (MIC), Pore ΔtolC [15] | Minimum inhibitory concentration, ΔtolC-Pore [15] | Minimum inhibitory concentration (MIC), Pore EKO-35 ([16]; Table 10, with pore) | Minimum inhibitory concentration, EKO-35-Pore ([16]; Table 14A, porinated) | Minimum inhibitory concentration [17, 22]
susceptible: susceptibility of EKO-35 to the compound ([13]; synthetic efflux substrates of FIG. 12)
80 µg/mL: Minimum inhibitory concentration, EKO-35 araC::mdtEF Pore [19, 23]
16 fold: Fold change of MICs [1] | Fold change of MICs [6] | Fold change of MICs [8] | Fold changes of MICs [19]
1 fold: Fold change of MICs [2] | Fold change of MICs [4] | Fold change of MICs [5] | Fold change of MICs [7] | Fold change of MICs [9] | Fold change of MICs [13] | Fold changes of MICs [16] | Fold changes of MICs [17]
32 fold: Fold change of MICs [3] | Fold change of MICs [10] | Fold changes of MICs [18]
10 µg/mL: Minimum Inhibitory Concentration, EKO-35 araC::acrBD408A [2, 21] | Minimum Inhibitory Concentration, EKO-35 araC::acrD [5, 20] | Minimum Inhibitory Concentration, EKO-35 araC::macAB [9, 21] | Minimum inhibitory concentration (MIC), ΔtolC [12] | Minimum Inhibitory Concentration, ΔtolC [12] | Minimum inhibitory concentration (MIC), EKO-35 ([13]; Table 10, without pore) | Minimum Inhibitory Concentration, EKO-35 ([13]; Table 13A, non-porinated)
320 µg/mL: Minimum Inhibitory Concentration, EKO-35 araC::acrEF [3, 20] | Minimum Inhibitory Concentration, EKO-35 araC::acrB [10, 20] | Minimum inhibitory concentration (MIC), K-12 ([11]; Table 10, without pore) | Minimum Inhibitory Concentration, K-12 ([11]; Table 13A, non-porinated)
160 µg/mL: Minimum Inhibitory Concentration, EKO-35 araC::mdtEF [1, 20] | Minimum Inhibitory Concentration, EKO-35 araC::mexCD [6, 21] | Minimum Inhibitory Concentration, EKO-35 araC::emrAB [8, 21] | Minimum inhibitory concentration (MIC), Pore K-12 ([14]; Table 10, with pore) | Minimum inhibitory concentration, K-12 (WT)-Pore ([14]; Table 14A, porinated) | Minimum inhibitory concentration, EKO-35 araC::acrB Pore [18]

O=C(Nc1ccccc1C(=O)Nc1nnc(C(F)(F)F)s1)c1ccccc1Cl [compound 19]
2.5 µg/mL: Minimum inhibitory concentration (MIC), ΔtolC [12] | Minimum Inhibitory Concentration, ΔtolC [12]
0.625 µg/mL: Minimum inhibitory concentration (MIC), Pore ΔtolC [15] | Minimum inhibitory concentration, ΔtolC-Pore [15]
1 fold: Fold change of MICs [1] | Fold change of MICs [2] | Fold change of MICs [3] | Fold change of MICs [4] | Fold change of MICs [5] | Fold change of MICs [6] | Fold change of MICs [7] | Fold change of MICs [8] | Fold change of MICs [9] | Fold change of MICs [10] | Fold change of MICs [13] | Fold changes of MICs [16] | Fold changes of MICs [17] | Fold changes of MICs [18] | Fold changes of MICs [19]
320 µg/mL: Minimum Inhibitory Concentration, EKO-35 araC::mdtEF [1, 20] | Minimum Inhibitory Concentration, EKO-35 araC::acrBD408A [2, 21] | Minimum Inhibitory Concentration, EKO-35 araC::acrEF [3, 20] | Minimum Inhibitory Concentration, EKO-35 araC::emrKY [4, 21] | Minimum Inhibitory Concentration, EKO-35 araC::acrD [5, 20] | Minimum Inhibitory Concentration, EKO-35 araC::mexCD [6, 21] | Minimum Inhibitory Concentration, EKO-35 araC::mdtBC [7, 21] | Minimum Inhibitory Concentration, EKO-35 araC::emrAB [8, 21] | Minimum Inhibitory Concentration, EKO-35 araC::macAB [9, 21] | Minimum Inhibitory Concentration, EKO-35 araC::acrB [10, 20] | Minimum inhibitory concentration (MIC), K-12 ([11]; Table 10, without pore) | Minimum Inhibitory Concentration, K-12 ([11]; Table 13A, non-porinated) | Minimum inhibitory concentration (MIC), EKO-35 ([13]; Table 10, without pore) | Minimum Inhibitory Concentration, EKO-35 ([13]; Table 13A, non-porinated) | Minimum inhibitory concentration (MIC), Pore K-12 ([14]; Table 10, with pore) | Minimum inhibitory concentration, K-12 (WT)-Pore ([14]; Table 14A, porinated) | Minimum inhibitory concentration (MIC), Pore EKO-35 ([16]; Table 10, with pore) | Minimum inhibitory concentration, EKO-35-Pore ([16]; Table 14A, porinated) | Minimum inhibitory concentration [17, 22] | Minimum inhibitory concentration, EKO-35 araC::acrB Pore [18] | Minimum inhibitory concentration, EKO-35 araC::mdtEF Pore [19, 23]

COc1cccc2c1C(=O)c1c(O)c3c(c(O)c1C2=O)C[C@@](O)(C(=O)CO)C[C@@H]3O[C@H]1C[C@H](N)[C@H](O)[C@H](C)O1 [doxorubicin]
64 fold: Fold change of MICs [1] | Fold change of MICs [3] | Fold changes of MICs [18]
128 fold: Fold change of MICs [10]
4 fold: Fold changes of MICs [17]
25 µg/mL: MIC ([6]; Table 13B, non-porinated, technical duplicate, read-out: Minimum Inhibitory Concentration, EKO-35 araC::mexCD) | MIC ([19]; Escherichia coli, Table 14A, porinated, technical duplicate, read-out: Minimum inhibitory concentration, EKO-35 araC::mdtEF Pore)
100 µg/mL: MIC ([1]; Escherichia coli, Table 13A, non-porinated, technical duplicate, read-out: Minimum Inhibitory Concentration, EKO-35 araC::mdtEF) | MIC ([3]; Escherichia coli, Table 13A, non-porinated, technical duplicate, read-out: Minimum Inhibitory Concentration, EKO-35 araC::acrEF)
1.563 µg/mL: Minimum inhibitory concentration (MIC), ΔtolC [12]
32 fold: Fold changes of MICs [19]
50 µg/mL: MIC ([14]; Table 10, with pore, read-out: Minimum inhibitory concentration (MIC), Pore K-12) | MIC ([14]; Table 14A, porinated, read-out: Minimum inhibitory concentration, K-12 (WT)-Pore)
associated with resistance: efflux pump-mediated resistance vs EKO-35-Pore ([17]; MdtBC with the pore)
0.781 µg/mL: MIC ([15]; Escherichia coli, 18 h, read-out: Minimum inhibitory concentration, ΔtolC-Pore) | Minimum inhibitory concentration (MIC), Pore ΔtolC [15] | MIC ([16]; Table 10, with pore, read-out: Minimum inhibitory concentration (MIC), Pore EKO-35) | MIC ([16]; Table 14A, porinated, read-out: Minimum inhibitory concentration, EKO-35-Pore)
16 fold: Fold change of MICs [6]
200 µg/mL: MIC ([10]; Escherichia coli, Table 13A, non-porinated, technical duplicate, read-out: Minimum Inhibitory Concentration, EKO-35 araC::acrB) | MIC ([11]; Table 10, without pore, read-out: Minimum inhibitory concentration (MIC), K-12) | MIC ([11]; Table 13A, non-porinated, read-out: Minimum Inhibitory Concentration, K-12)
1.56 µg/mL: MIC ([2]; Escherichia coli, Table 13B, non-porinated, technical duplicate, read-out: Minimum Inhibitory Concentration, EKO-35 araC::acrBD408A) | MIC ([4]; Escherichia coli, Table 13B, non-porinated, technical duplicate, read-out: Minimum Inhibitory Concentration, EKO-35 araC::emrKY) | MIC ([7]; Escherichia coli, Table 13B, non-porinated, technical duplicate, read-out: Minimum Inhibitory Concentration, EKO-35 araC::mdtBC) | MIC ([8]; Escherichia coli, Table 13B, non-porinated, technical duplicate, read-out: Minimum Inhibitory Concentration, EKO-35 araC::emrAB) | MIC ([9]; Escherichia coli, Table 13B, non-porinated, technical duplicate, read-out: Minimum Inhibitory Concentration, EKO-35 araC::macAB) | MIC ([12]; Escherichia coli, 18 h, read-out: Minimum Inhibitory Concentration, ΔtolC) | MIC ([13]; Table 10, without pore, read-out: Minimum inhibitory concentration (MIC), EKO-35) | MIC ([13]; Table 13A, non-porinated, read-out: Minimum Inhibitory Concentration, EKO-35)
2 fold: Fold change of MICs [5]
3.12 µg/mL: MIC ([5]; Escherichia coli, Table 13A, non-porinated, technical duplicate, read-out: Minimum Inhibitory Concentration, EKO-35 araC::acrD) | MIC ([17]; Escherichia coli, EKO-35 araC::mdtBC Pore, technical duplicate, read-out: Minimum inhibitory concentration)
1 fold: Fold change of MICs [2] | Fold change of MICs [4] | Fold change of MICs [7] | Fold change of MICs [8] | Fold change of MICs [9] | Fold change of MICs [13] | Fold changes of MICs [16]
